# Reference: patent US6906046B2 (Celltech R & D Inc., priority 2000, dated 2005)
# Columns and labels:
# CXCR1 = biological target: T1, CXCR1 (Homo sapiens, UniProt P25024); assay: CXCR1 radioligand binding assay with 125I labeled IL-8; conditions: human recombinant CHO cells, percent inhibition or IC50, read-out: CXCR1 inh.
# T1 construct: host or cells: CHO cells
# T1 sequence (P25024 1-350): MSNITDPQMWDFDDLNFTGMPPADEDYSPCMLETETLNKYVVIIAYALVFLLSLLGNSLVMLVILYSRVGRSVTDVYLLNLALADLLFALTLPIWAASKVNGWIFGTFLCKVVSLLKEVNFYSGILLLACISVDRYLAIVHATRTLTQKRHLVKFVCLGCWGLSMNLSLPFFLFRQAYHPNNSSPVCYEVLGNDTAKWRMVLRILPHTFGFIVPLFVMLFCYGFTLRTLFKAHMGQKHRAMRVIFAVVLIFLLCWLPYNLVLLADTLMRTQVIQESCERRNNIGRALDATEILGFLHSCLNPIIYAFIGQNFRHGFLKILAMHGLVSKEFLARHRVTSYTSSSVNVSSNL
# Source text: (§1) This assay is a radioligand binding assay in human recombinant CHO cells with ^125I labeled IL-8 as the ligand. The assay procedure is described in Ahuja, S. K.; Murphy, P. M;.
# A549 cells = assay: Inhibition of TNF-α induced apoptosis in A549 cells (crystal violet); format: cell-based; conditions: Homo sapiens; A549 cells, actinomycin-D + TNF-α at its EC50, 18 hours; percent inhibition at 20 μM or IC50 in μM; read-out: Apopt. Inh.
# Procedure: The protocol used for determining inhibition of apoptosis in A549 cells was adopted from a system previously described (K. Last-Barney et al., J. of Immunology 141:527-530, 1988). Briefly, 10^5 cells in 200 μL 10% FBS/RPMI antibiotic containing culture medium were plated into 96 well round bottom culture plates and allowed to adhere for 6 hours at 37° C. in a 5% CO2 atmosphere. The media was removed and 100 μL of RPMI+1 μg/mL actinomycin-D was added to each well, followed by 90 μL of test compound solution in 1% DMSO. This was incubated for 1 hour 10 AL TNF-α was added at its EC50 (normally 1 ng/mL FAC) and the plates incubated for 18 hours. The media was aspirated from the plates and 100 μL of 0.5% crystal violet in 20% methanol was added. After 10 minutes the plates were rinsed with water to remove excess stain, air dried, and read on a Spectramax at a wavelength of 590 nm. The data obtained from the Spectramax was converted into percent inhibition data at a concentration of 20 μM or IC50 measured in μM.
# NFκB = NFκB luciferase reporter assay in TNF-α stimulated A549 cells (E-selectin promoter); format: cell-based; conditions: Homo sapiens; A549 cells with NFκB luciferase reporter, TNF-α at its EC50, 5 hours; % inhibition or IC50 in μM; read-out: NFkB inh.
# Procedure: A549 cells were stably transfected with an E-selectin promoter containing three NFκB binding sites driving luciferase expression. For the assay, 5×10^4 cells were incubated in 96 well round bottom plates overnight in 100 μL of 10% FBS/RPMI medium at 37° C. in a 5% CO2 atmosphere. The following morning the medium was removed and 90 μL of a 1% DMSO solution of test compound solution was added and the plates incubated for 1 hour. 10 μL of TNF-α was added at its EC50 (normally 6 ng/mL FAC) to each well and the plate incubated for 5 hours. 100 μL of luciferase buffer was added, and after 10 minutes luminescence was read on a Wallac Victor 1420 Multilabel Counter. The data obtained from the Wallac Victor was converted into % inhibition data or IC50 measured in μM.
# CXCR2 = biological target: T2, CXCR2 (Homo sapiens, UniProt P25025); assay: CXCR2 radioligand binding assay with 125I labeled IL-8; conditions: human recombinant CHO cells, percent inhibition or IC50, read-out: CXCR2 2 inh.
# T2 construct: host or cells: CHO cells
# T2 sequence (P25025 1-360): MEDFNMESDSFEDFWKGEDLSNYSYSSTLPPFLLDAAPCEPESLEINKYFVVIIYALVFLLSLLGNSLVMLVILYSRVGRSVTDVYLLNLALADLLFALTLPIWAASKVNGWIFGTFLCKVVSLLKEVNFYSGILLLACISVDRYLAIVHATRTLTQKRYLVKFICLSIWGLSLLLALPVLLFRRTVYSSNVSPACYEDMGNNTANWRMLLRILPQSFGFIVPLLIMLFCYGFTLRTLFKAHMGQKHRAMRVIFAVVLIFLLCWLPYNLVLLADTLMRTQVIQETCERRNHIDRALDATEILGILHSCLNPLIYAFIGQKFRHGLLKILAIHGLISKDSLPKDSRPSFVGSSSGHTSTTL
# Source text: as §1
smiles,measurement,setting,value
CCCOC(=O)C1C(C(=O)OCC[Si](C)(C)C)C2C/C(=N\Nc3ccccc3)[C@H]1c1cc(O)ccc12 (stereo partly shown) [Example 111],IC50,CXCR1,< 10 µM
same,IC50,A549 cells,< 10 µM
same,IC50,NFκB,10 to 50 µM
same,IC50,CXCR2,< 10 µM
